{
  "source": "ChEMBL document CHEMBL5506025",
  "about": "“Discovery of LLC0424 as a Potent and Selective in Vivo NSD2 PROTAC Degrader” (J Med Chem, 2024)",
  "key": {"[1]": {"molecular_target": "T1, Protein cereblon/Histone-lysine N-methyltransferase NSD2 (Homo sapiens) (UniProt O96028+Q96SW2)", "T1 sequence (O96028 whole entry, looked up)": "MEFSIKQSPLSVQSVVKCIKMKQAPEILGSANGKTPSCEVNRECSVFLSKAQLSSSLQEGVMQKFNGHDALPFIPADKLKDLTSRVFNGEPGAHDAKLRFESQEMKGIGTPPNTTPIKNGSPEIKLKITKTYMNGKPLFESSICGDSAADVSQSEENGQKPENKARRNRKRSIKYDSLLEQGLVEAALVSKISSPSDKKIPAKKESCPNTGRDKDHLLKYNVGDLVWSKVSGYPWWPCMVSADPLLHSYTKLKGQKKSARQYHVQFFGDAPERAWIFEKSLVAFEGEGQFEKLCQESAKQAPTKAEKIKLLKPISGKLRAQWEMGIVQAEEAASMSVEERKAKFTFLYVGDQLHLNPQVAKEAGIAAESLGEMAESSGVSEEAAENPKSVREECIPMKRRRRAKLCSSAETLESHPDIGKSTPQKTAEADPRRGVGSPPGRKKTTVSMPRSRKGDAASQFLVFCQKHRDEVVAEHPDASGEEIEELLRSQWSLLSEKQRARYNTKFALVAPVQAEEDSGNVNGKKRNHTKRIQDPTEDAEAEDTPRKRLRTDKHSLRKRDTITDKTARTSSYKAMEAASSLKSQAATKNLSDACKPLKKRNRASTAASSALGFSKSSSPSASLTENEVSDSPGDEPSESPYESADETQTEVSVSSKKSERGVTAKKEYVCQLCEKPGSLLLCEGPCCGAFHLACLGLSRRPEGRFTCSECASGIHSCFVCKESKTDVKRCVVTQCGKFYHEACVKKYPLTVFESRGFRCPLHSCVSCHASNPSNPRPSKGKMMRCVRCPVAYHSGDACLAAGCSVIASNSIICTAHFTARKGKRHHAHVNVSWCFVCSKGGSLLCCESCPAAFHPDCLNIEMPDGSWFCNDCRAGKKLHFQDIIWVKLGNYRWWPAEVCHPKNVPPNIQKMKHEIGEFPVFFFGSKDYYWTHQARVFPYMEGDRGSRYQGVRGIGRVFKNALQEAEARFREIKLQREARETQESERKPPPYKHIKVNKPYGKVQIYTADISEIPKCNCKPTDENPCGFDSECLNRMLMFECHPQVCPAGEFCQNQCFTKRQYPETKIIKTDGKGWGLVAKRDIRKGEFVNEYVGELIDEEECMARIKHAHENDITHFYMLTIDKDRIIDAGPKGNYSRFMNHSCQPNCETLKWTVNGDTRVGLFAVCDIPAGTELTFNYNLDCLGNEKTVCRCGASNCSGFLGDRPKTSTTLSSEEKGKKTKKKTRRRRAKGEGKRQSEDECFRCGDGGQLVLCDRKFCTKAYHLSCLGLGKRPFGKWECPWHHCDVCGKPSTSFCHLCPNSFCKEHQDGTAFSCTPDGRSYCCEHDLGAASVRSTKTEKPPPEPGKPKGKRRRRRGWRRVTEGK", "T1 sequence (Q96SW2 whole entry, looked up)": "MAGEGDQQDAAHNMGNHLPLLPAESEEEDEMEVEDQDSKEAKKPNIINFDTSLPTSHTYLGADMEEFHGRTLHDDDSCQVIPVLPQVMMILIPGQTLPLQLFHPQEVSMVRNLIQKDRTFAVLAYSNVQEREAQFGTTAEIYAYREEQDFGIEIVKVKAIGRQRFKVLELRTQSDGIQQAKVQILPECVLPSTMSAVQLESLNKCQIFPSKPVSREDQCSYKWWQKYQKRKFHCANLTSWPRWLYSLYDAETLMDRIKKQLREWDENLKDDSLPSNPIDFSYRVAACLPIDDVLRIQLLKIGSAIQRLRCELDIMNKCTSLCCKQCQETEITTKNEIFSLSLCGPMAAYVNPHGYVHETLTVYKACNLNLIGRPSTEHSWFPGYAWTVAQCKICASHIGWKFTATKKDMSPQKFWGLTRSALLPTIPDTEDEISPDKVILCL", "assay": "PROTAC activity at CRBN/NSD2 in human RPMI 8402 cells assessed as induction of NSD2 degradation incubated for 24 hrs by immunoblot analysis", "type": "cell-based", "conditions": "dose 0.001-10 µM"}, "[2]": {"molecular_target": "T1, Protein cereblon/Histone-lysine N-methyltransferase NSD2 (Homo sapiens)", "assay": "PROTAC activity at CRBN/NSD2 in human RPMI 8402 cells assessed as induction of NSD2 degradation at 2 uM measured after 4 to 8 hrs hrs by immunoblot analysis", "type": "cell-based", "conditions": "time 4-8 hrs"}, "[3]": {"molecular_target": "T1, Protein cereblon/Histone-lysine N-methyltransferase NSD2 (Homo sapiens)", "assay": "PROTAC activity at CRBN/NSD2 in human SEM cells assessed as induction of NSD2 degradation at 2 uM measured after 4 to 8 hrs hrs by immunoblot analysis", "type": "cell-based", "conditions": "time 4-8 hrs"}, "[4]": {"molecular_target": "T1, Protein cereblon/Histone-lysine N-methyltransferase NSD2 (Homo sapiens)", "assay": "PROTAC activity at CRBN/NSD2 in human SEM cells assessed as induction of NSD2 degradation at 0.5 to 2 uM measured after 24 hrs by immunoblot analysis", "type": "cell-based", "conditions": "dose 0.5-2 µM"}, "[5]": {"molecular_target": "T1, Protein cereblon/Histone-lysine N-methyltransferase NSD2 (Homo sapiens)", "assay": "PROTAC activity at CRBN/NSD2 in human RPMI 8402 cells assessed as induction of NSD2 degradation at 2 uM measured after 12 to 24 hrs by immunoblot analysis", "type": "cell-based", "conditions": "time 12-24 hrs"}, "[6]": {"molecular_target": "T1, Protein cereblon/Histone-lysine N-methyltransferase NSD2 (Homo sapiens)", "assay": "PROTAC activity at CRBN/NSD2 in human SEM cells assessed as induction of NSD2 degradation at 2 uM measured after 12 to 24 hrs by immunoblot analysis", "type": "cell-based", "conditions": "time 12-24 hrs"}, "[7]": {"molecular_target": "T1, Protein cereblon/Histone-lysine N-methyltransferase NSD2 (Homo sapiens)", "assay": "PROTAC activity at CRBN/NSD2 in human RPMI 8402 cells assessed as induction of NSD2 degradation at 2 uM pretreated with thalidomide for 2 hrs followed by compound addition and measured after 6 to 12 hrs by Western blot analysis", "type": "cell-based", "conditions": "time 6-12 hrs"}, "[8]": {"molecular_target": "T1, Protein cereblon/Histone-lysine N-methyltransferase NSD2 (Homo sapiens)", "assay": "PROTAC activity at CRBN/NSD2 in human RPMI 8402 cells assessed as induction of NSD2 degradation at 2 uM pretreated with UNC6934 for 2 hrs followed by compound addition and measured after 6 to 12 hrs by Western blot analysis", "type": "cell-based", "conditions": "time 6-12 hrs"}, "[9]": {"molecular_target": "T1, Protein cereblon/Histone-lysine N-methyltransferase NSD2 (Homo sapiens)", "assay": "PROTAC activity at CRBN/NSD2 in human RPMI 8402 cells assessed as induction of NSD2 degradation at 2 uM pretreated with VL-285 for 2 hrs followed by compound addition and measured after 6 to 12 hrs by Western blot analysis", "type": "cell-based", "conditions": "time 6-12 hrs"}, "[10]": {"molecular_target": "T1, Protein cereblon/Histone-lysine N-methyltransferase NSD2 (Homo sapiens)", "assay": "PROTAC activity at CRBN/NSD2 in human RPMI 8402 cells assessed as induction of NSD2 degradation at 2 uM pretreated with MLN4924 for 2 hrs followed by compound addition and measured after 6 to 12 hrs by Western blot analysis", "type": "cell-based", "conditions": "time 6-12 hrs"}, "[11]": {"molecular_target": "T1, Protein cereblon/Histone-lysine N-methyltransferase NSD2 (Homo sapiens)", "assay": "PROTAC activity at CRBN/NSD2 in human SEM cells assessed as induction of NSD2 degradation at 2 uM incubated for 12 hrs by immunoblot analysis", "type": "cell-based"}, "[12]": {"molecular_target": "T1, Protein cereblon/Histone-lysine N-methyltransferase NSD2 (Homo sapiens)", "assay": "PROTAC activity at CRBN/NSD2 in human VCaP cells assessed as decrease in NSD2 level at 2 uM measured after 6 hrs by TMT-labeled quantitative proteomics assay", "type": "cell-based"}, "[13]": {"molecular_target": "T1, Protein cereblon/Histone-lysine N-methyltransferase NSD2 (Homo sapiens)", "assay": "PROTAC activity at CRBN/NSD2 in human SEM cells assessed as decrease in NSD2 level at 2 uM measured after 4 hrs by TMT-labeled quantitative proteomics assay", "type": "cell-based"}, "[14]": {"molecular_target": "Protein cereblon/Histone-lysine N-methyltransferase, H3 lysine-36 specific (Homo sapiens) (UniProt Q96L73+Q96SW2)", "sequence (Q96L73 whole entry, looked up)": "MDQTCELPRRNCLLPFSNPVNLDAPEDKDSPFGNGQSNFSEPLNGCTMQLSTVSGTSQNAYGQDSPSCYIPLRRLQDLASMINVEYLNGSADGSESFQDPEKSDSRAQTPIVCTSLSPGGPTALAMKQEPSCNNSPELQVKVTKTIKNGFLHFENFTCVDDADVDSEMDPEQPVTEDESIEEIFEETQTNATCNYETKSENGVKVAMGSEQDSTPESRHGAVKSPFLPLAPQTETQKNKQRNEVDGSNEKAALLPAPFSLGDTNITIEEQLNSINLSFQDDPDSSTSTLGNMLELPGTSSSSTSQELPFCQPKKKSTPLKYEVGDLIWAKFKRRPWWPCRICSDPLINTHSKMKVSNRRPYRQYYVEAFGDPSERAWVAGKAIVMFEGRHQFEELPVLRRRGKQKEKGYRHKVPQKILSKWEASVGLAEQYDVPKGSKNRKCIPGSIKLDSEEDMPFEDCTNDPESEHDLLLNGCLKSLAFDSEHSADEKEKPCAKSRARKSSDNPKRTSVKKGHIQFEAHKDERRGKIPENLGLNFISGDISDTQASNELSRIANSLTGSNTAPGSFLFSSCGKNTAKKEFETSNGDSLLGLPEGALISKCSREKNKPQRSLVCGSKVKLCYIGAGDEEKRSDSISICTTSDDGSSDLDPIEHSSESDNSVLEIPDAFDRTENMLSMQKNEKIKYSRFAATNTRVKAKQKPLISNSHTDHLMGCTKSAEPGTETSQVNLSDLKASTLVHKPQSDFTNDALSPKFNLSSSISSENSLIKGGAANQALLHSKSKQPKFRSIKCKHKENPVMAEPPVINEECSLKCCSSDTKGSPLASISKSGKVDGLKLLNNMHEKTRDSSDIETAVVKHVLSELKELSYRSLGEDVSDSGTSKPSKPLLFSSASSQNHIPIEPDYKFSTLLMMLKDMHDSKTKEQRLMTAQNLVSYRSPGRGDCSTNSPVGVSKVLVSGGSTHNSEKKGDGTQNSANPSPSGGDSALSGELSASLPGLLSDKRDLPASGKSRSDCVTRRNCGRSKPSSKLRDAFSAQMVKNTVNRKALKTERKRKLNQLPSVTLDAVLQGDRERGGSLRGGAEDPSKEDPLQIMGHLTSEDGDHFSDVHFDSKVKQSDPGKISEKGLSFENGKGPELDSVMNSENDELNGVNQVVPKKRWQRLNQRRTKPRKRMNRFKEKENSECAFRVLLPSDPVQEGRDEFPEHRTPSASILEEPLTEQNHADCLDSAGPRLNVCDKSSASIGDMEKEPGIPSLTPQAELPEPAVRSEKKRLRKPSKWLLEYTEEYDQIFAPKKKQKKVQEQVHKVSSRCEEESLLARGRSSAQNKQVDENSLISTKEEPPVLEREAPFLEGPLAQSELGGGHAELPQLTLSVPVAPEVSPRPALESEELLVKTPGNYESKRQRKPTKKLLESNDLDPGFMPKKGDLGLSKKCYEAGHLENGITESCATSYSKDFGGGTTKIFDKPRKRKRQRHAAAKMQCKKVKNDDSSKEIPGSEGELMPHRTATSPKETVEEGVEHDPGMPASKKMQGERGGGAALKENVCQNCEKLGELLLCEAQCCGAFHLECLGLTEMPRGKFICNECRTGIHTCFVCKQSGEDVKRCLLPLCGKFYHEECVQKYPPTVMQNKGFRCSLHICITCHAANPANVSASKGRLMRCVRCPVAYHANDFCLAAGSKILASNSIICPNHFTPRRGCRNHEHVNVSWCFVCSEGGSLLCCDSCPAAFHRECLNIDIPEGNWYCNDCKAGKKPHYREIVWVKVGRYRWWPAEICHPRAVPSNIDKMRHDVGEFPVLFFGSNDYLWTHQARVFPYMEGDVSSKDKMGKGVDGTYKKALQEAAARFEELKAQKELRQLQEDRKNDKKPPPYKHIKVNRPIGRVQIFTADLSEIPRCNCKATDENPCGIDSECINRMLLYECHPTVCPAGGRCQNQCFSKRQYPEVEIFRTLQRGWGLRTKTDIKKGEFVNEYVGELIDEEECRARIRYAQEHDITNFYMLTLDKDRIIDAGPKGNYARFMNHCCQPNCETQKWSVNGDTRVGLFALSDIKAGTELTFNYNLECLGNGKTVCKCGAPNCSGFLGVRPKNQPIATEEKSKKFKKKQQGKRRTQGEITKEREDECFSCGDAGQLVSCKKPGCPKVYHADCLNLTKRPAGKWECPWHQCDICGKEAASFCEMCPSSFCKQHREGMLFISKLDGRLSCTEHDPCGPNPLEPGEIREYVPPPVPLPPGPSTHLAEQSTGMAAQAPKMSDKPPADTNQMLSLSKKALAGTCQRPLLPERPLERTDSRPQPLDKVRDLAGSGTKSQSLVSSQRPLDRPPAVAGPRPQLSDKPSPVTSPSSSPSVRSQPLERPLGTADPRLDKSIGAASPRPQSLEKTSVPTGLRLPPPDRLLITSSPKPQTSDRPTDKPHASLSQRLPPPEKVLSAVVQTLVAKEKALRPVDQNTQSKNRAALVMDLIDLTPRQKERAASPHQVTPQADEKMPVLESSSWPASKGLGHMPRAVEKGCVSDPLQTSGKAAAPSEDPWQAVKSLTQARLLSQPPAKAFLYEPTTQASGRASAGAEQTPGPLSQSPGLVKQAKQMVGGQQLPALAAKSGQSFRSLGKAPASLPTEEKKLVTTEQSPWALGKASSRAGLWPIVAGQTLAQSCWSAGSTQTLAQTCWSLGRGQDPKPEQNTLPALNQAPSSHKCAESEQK", "sequence (Q96SW2 whole entry, looked up)": "as the sequence (Q96SW2 whole entry, looked up) above", "assay": "PROTAC activity at CRBN/NSD1 in human SEM cells assessed as decrease in NSD1 level at 2 uM measured upto 8 hrs by immunoblot analysis", "type": "cell-based"}, "[15]": {"molecular_target": "Protein cereblon/Histone-lysine N-methyltransferase NSD3 (Homo sapiens) (UniProt Q9BZ95+Q96SW2)", "assay": "PROTAC activity at CRBN/NSD3 in human SEM cells assessed as decrease in NSD3 level at 2 uM measured upto 8 hrs by immunoblot analysis", "type": "cell-based"}, "[16]": {"molecular_target": "Cereblon/Ikaros (Homo sapiens) (UniProt Q96SW2+Q13422)", "assay": "PROTAC activity at CRBN/IKZF1 in human SEM cells assessed as decrease in IKZF1 level at 2 uM measured upto 8 hrs by immunoblot analysis", "type": "cell-based"}, "[17]": {"molecular_target": "Cereblon/Casein kinase I alpha (Homo sapiens) (UniProt P48729+Q96SW2)", "assay": "PROTAC activity at CRBN/CK1alpha in human SEM cells assessed as decrease in CK1alpha level at 2 uM measured upto 8 hrs by immunoblot analysis", "type": "cell-based"}, "[18]": {"molecular_target": "T2, Protein cereblon/Eukaryotic peptide chain release factor GTP-binding subunit ERF3A (Homo sapiens) (UniProt Q96SW2+P15170)", "T2 sequence (P15170 whole entry, looked up)": "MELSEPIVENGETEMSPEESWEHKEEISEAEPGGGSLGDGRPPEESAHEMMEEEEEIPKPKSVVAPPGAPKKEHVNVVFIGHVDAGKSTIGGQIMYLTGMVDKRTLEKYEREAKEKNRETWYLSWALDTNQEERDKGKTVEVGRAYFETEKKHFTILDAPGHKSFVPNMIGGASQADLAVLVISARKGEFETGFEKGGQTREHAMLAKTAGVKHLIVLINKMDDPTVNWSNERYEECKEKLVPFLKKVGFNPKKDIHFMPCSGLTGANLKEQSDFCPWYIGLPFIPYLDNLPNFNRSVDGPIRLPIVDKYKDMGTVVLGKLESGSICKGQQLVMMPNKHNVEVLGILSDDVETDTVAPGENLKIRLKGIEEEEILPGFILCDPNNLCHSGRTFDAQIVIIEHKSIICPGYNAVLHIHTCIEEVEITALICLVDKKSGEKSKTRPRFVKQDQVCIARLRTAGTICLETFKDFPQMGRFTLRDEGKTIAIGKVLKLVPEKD", "T2 sequence (Q96SW2 whole entry, looked up)": "as the sequence (Q96SW2 whole entry, looked up) above", "assay": "PROTAC activity at CRBN/GSPT1 in human RPMI 8402 cells assessed as decrease in GSPT1 level at 2 uM measured after 12 hrs by TMT-labeled quantitative proteomics assay", "type": "cell-based"}, "[19]": {"molecular_target": "T2, Protein cereblon/Eukaryotic peptide chain release factor GTP-binding subunit ERF3A (Homo sapiens)", "assay": "PROTAC activity at CRBN/GSPT1 in human VCaP cells assessed as decrease in GSPT1 level at 2 uM measured upto 8 hrs by immunoblot analysis", "type": "cell-based"}, "[20]": {"molecular_target": "T1, Protein cereblon/Histone-lysine N-methyltransferase NSD2 (Homo sapiens)", "assay": "PROTAC activity at CRBN/NSD2 in human SEM cells assessed as downregulation of H3K36Me2 level at 2 uM measured after 8 hrs hrs by immunoblot analysis", "type": "cell-based"}, "RPMI 8402": {"test_system": "RPMI 8402", "assay": "Inhibition of colony formation in human RPMI 8402 cells at 2 uM administered every three days for 30 days by iodonitrotetrazolium chloride staining based microscopy analysis", "type": "functional, cell-based", "conditions": "time 30.0 day"}, "SEM cells [21]": {"test_system": "SEM cells", "assay": "Downregulation of CD38 gene expression in human SEM cells measured after 14 days by RNA sequencing assay", "type": "functional, cell-based", "conditions": "time 14.0 day"}, "SEM cells [22]": {"test_system": "SEM cells", "assay": "Downregulation of CD9 gene expression in human SEM cells measured after 14 days by RNA sequencing assay", "type": "functional, cell-based", "conditions": "time 14.0 day"}, "SEM cells [23]": {"test_system": "SEM cells", "assay": "Cytotoxicity against human SEM cells harbouring NSD2 assessed as inhibition of cell growth at 2 uM measured after 9 days by Celltiter-glo assay", "type": "functional, cell-based", "conditions": "time 9.0 day"}, "[24]": {"molecular_target": "T1, Protein cereblon/Histone-lysine N-methyltransferase NSD2 (Homo sapiens)", "assay": "In vivo PROTAC activity at CRBN/NSD2 in SCID mouse xenografted with human SEM cells assessed as downregulation of NSD2 level at 60 mg/kg, iv for 5 days by Western blot analysis", "type": "functional, organism-based", "conditions": "time 5.0 day"}, "[25]": {"molecular_target": "T1, Protein cereblon/Histone-lysine N-methyltransferase NSD2 (Homo sapiens)", "assay": "In vivo PROTAC activity at CRBN/NSD2 in SCID mouse xenografted with human 22Rv1 cells assessed as downregulation of NSD2 level at 60 mg/kg, iv for 5 days by Western blot analysis", "type": "functional, organism-based", "conditions": "CWR22R, time 5.0 day"}, "[26]": {"molecular_target": "T1, Protein cereblon/Histone-lysine N-methyltransferase NSD2 (Homo sapiens)", "assay": "In vivo PROTAC activity at CRBN/NSD2 in SCID mouse xenografted with human 22Rv1 cells assessed as downregulation of NSD2 level at 60 mg/kg, ip for 5 days by Western blot analysis", "type": "functional, organism-based", "conditions": "CWR22R, time 5.0 day"}, "[27]": {"molecular_target": "T1, Protein cereblon/Histone-lysine N-methyltransferase NSD2 (Homo sapiens)", "assay": "In vivo PROTAC activity at CRBN/NSD2 in SCID mouse xenografted with human SEM cells assessed as downregulation of NSD2 level at 60 mg/kg, iv for 5 days by immunohistochemical analysis", "type": "functional, organism-based", "conditions": "time 5.0 day"}, "[28]": {"molecular_target": "T1, Protein cereblon/Histone-lysine N-methyltransferase NSD2 (Homo sapiens)", "assay": "In vivo PROTAC activity at CRBN/NSD2 in SCID mouse xenografted with human 22Rv1 cells assessed as downregulation of NSD2 level at 60 mg/kg, iv for 5 days by immunohistochemical analysis", "type": "functional, organism-based", "conditions": "CWR22R, time 5.0 day"}, "[29]": {"molecular_target": "T1, Protein cereblon/Histone-lysine N-methyltransferase NSD2 (Homo sapiens)", "assay": "In vivo PROTAC activity at CRBN/NSD2 in SCID mouse xenografted with human 22Rv1 cells assessed as downregulation of NSD2 level at 60 mg/kg, ip for 5 days by immunohistochemical analysis", "type": "functional, organism-based", "conditions": "CWR22R, time 5.0 day"}},
  "note": "The source made the active and inactive calls. The rule behind the calls is not given here.",
  "data": [
    {"smiles": "O=C1CCC(N2C(=O)c3ccc(N4CCC(NC(=O)c5ccc(NC(=O)c6ccc(CN(C(=O)c7ccc8c(c7)OCC(=O)N8)C7CC7)cc6)cc5)CC4)cc3C2=O)C(=O)N1", "note": "(stereo not given)", "values": [
      {"measurement": "Activity", "setting": "[1]", "result": "Dose-Dependent Effect"},
      {"measurement": "Activity", "setting": "[2]", "result": "Active"},
      {"measurement": "Activity", "setting": "[3]", "result": "Active"},
      {"measurement": "Activity", "setting": "[4]", "result": "Active"},
      {"measurement": "Activity", "setting": "[5]", "result": "Active"},
      {"measurement": "Activity", "setting": "[6]", "result": "Active"},
      {"measurement": "Activity", "setting": "[7]", "result": "inactive"},
      {"measurement": "Activity", "setting": "[8]", "result": "inactive"},
      {"measurement": "Activity", "setting": "[9]", "result": "Active"},
      {"measurement": "Activity", "setting": "[10]", "result": "inactive"},
      {"measurement": "Activity", "setting": "[11]", "result": "Active"},
      {"measurement": "Activity", "setting": "[12]", "result": "Active"},
      {"measurement": "Activity", "setting": "[13]", "result": "Active"},
      {"measurement": "Activity", "setting": "[14]", "result": "inactive"},
      {"measurement": "Activity", "setting": "[15]", "result": "inactive"},
      {"measurement": "Activity", "setting": "[16]", "result": "inactive"},
      {"measurement": "Activity", "setting": "[17]", "result": "inactive"},
      {"measurement": "Activity", "setting": "[18]", "result": "Active"},
      {"measurement": "Activity", "setting": "[19]", "result": "inactive"},
      {"measurement": "Activity", "setting": "[20]", "result": "Active"},
      {"measurement": "inhibition", "setting": "RPMI 8402", "result": "Active"},
      {"measurement": "Activity", "setting": "SEM cells [21]", "result": "Active"},
      {"measurement": "Activity", "setting": "SEM cells [22]", "result": "Active"},
      {"measurement": "Activity", "setting": "SEM cells [23]", "result": "Active"},
      {"measurement": "Activity", "setting": "[24]", "result": "Active"},
      {"measurement": "Activity", "setting": "[25]", "result": "Active"},
      {"measurement": "Activity", "setting": "[26]", "result": "Active"},
      {"measurement": "Activity", "setting": "[27]", "result": "Active"},
      {"measurement": "Activity", "setting": "[28]", "result": "Active"},
      {"measurement": "Activity", "setting": "[29]", "result": "Active"}
    ]}
  ]
}
